One test relates to N2a cells. The note with it: cited from earlier work.
Test [1] relates to Botulinum toxin type A (BoNT/A). Also on record: species or system Balb/c mice. The note with it: mouse, in vivo.
In test [2] the target is Botulinum toxin type B endopeptidase (BoNT/B-LC) (Clostridium botulinum, UniProt P10844). The class given is biochemical.
The subject of test [3] is Botulinum toxin type B (BoNT/B). Also on record: species or system Balb/c mice. The note with it: mouse, in vivo.
The target of test [4] is Botulinum toxin type A endopeptidase (BoNT/A-LC) (Clostridium botulinum, UniProt P0DPI0). The class given is biochemical.
Sequence of Botulinum toxin type A endopeptidase (BoNT/A-LC) (P0DPI0 2-448 limits assumed): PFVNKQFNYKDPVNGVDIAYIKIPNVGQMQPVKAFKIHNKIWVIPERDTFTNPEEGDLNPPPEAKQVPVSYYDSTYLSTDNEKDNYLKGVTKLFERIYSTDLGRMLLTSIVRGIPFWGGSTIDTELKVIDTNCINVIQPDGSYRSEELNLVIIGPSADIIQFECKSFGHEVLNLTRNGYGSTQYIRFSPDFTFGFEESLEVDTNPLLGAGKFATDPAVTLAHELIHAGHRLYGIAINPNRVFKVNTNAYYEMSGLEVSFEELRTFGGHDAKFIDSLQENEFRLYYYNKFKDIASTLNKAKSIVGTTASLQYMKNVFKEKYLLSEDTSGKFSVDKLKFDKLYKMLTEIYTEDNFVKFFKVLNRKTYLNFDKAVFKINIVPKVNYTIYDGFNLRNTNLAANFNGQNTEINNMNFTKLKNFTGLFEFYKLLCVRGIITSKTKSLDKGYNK

Molecules are shown by their SMILES.

Sequence of Botulinum toxin type B endopeptidase (BoNT/B-LC) (P10844 2-441 limits assumed): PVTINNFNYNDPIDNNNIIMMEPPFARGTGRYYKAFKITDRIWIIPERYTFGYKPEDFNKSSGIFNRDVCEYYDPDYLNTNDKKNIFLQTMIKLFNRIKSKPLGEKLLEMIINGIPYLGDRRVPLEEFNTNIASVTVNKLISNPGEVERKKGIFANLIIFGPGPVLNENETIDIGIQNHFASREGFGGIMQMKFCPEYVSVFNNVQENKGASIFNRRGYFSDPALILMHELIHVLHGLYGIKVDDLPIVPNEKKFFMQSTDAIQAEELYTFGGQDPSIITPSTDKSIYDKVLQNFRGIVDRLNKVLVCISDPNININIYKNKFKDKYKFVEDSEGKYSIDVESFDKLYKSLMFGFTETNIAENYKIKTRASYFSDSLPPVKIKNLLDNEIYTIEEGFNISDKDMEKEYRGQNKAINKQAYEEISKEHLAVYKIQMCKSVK

With `CCOc1ccc(C(Nc2cccnc2)c2cc(Cl)c3cccnc3c2O)cc1` (centres unmarked) [CB7969312], the “neutralization of toxicity of botulinum toxin type A to N2a cells” value in the test on N2a cells was “effectively neutralizes the toxicity”.
`COc1ccc(Cl)cc1NC(=O)COc1ncccc1C(=O)O` [Compound 6a, 2-(2-((5-chloro-2-methoxyphenyl)amino)-2-oxoethoxy)nicotinic acid]: the Survival rate % stood at 60% in test [1] and 20% in test [3]. Also, the Inhibition rate % stood at 80% in test [2] and 0% in test [4].
For `COc1ccc(Cl)cc1NC(=O)C[S+]([O-])c1ncccc1C(=O)O` (centres unmarked) [Compound 2c, 2-((2-((5-chloro-2-methoxyphenyl)amino)-2-oxoethyl)sulfinyl)nicotinic acid], the Survival rate % is 100% in test [1] and 20% in test [3]. Further, the Inhibition rate % is on record as 35% in test [2] and 60.0% in test [4].
Turning to `O=C(CS(=O)(=O)c1ncccc1C(=O)O)Nc1cc(Cl)ccc1Oc1ccccc1` [Compound 2b, 2-((2-((5-chloro-2-phenoxyphenyl)amino)-2-oxoethyl)sulfonyl)nicotinic acid], the Survival rate % in test [1] and in test [3] was 0% each time. Moreover, the Inhibition rate % in test [2] is reported as 0%; in test [4], 5%.
`COc1ccc(Cl)cc1NC(=O)CS(=O)(=O)c1cc(C(=O)O)ccn1` [Compound 2a, 2-((2-((5-chloro-2-methoxyphenyl)amino)-2-oxoethyl)sulfonyl)isonicotinic acid]: the Survival rate % in test [1] and in test [3] was 0% each time. Besides, the Inhibition rate % in test [2] stood at 0%; in test [4], 10%.

Values taken from US10981873B2 (priority 2016, dated 2021).
